PubChem BioAssay (NCI)
Values joined by “and” are separate entries in the source; they are usually repeats but may differ in a detail not shown here. Equal values may be shown once.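 Assay format: 96-well plates, 48-hour exposure. GI50: concentration for 50% inhibition of growth. Definition used: TGI = concentration required for complete inhibition of growth.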

Legend:
Experiment in all cases: NCI-60 cell line screen, 48 h
BT-549 breast = system: BT-549 breast
RXF 393 renal = system: RXF 393 renal
KM12 colon = system: KM12 colon
T-47D breast = system: T-47D breast
NCI-H522 lung = system: NCI-H522 lung
MCF7 breast = system: MCF7 breast

| Compound | GI50 (BT-549 breast) | TGI (BT-549 breast) | GI50 (RXF 393 renal) [µM] | TGI (RXF 393 renal) | GI50 (KM12 colon) | TGI (KM12 colon) [µM] | GI50 (T-47D breast) [µM] | TGI (T-47D breast) | GI50 (NCI-H522 lung) | TGI (NCI-H522 lung) | GI50 (MCF7 breast) | TGI (MCF7 breast) [µM] |
| --- | --- | --- | --- | --- | --- | --- | --- | --- | --- | --- | --- | --- |
| Cc1cc(S(=O)(=O)Nc2n[nH]c(-c3ccc(Cl)cc3)c2C#N)c(S)cc1Cl | > 100 µM | > 100 µM | > 100 | > 100 µM | > 100 µM | > 100 | > 100 | > 100 µM | > 100 µM | > 100 µM | > 100 µM | > 100 |
| Cc1cc(C)c2c(=O)cc(-c3ccc(F)cc3)[nH]c2n1 | – | > 100 µM | – | – | – | 49.9 | – | > 100 µM | – | > 100 µM | – | > 100 |
| CCCC(c1cc(C(C)(C)C)c(O)cc1C)c1cc(C(C)(C)C)c(O)cc1C | – | 22.7 µM | – | 4.56 µM | – | 11.1 | – | 8.92 µM | – | 5.72 µM | – | 4.85 |
| Oc1c(CCl)cc(Cl)cc1Cc1cc(Cl)cc(Cc2cc(Cl)cc(CCl)c2O)c1O | 2.71 µM | 11.5 µM | 2.59 | 9.43 µM | 3.43 µM | 13.5 | 2.21 | 9.39 µM | 2.73 µM | 10.2 µM | 2.73 µM | 10.9 |
| COc1cc2c3c(n(CCCNC(C)(C)CO)c(=O)c2cc1OC)-c1cc2c(cc1C3=O)OCO2 | 12.9 µM | 39.2 µM | 16.2 | > 68 µM | 2.19 µM | > 100 | 3.47 | 47.6 µM | 0.448 µM | > 21.8 µM | 0.294 µM | > 50.5 |
| CSc1nc(SC)c2cnn(-c3ccnc4cc(Cl)ccc34)c2n1 | 43.3 µM | > 87.7 µM | 14.2 | 48.6 µM | > 100 µM | > 100 | > 100 | > 100 µM | 55.1 µM | > 100 µM | 2.61 µM | > 41 |
| C#CCOCCCC(=O)O | – | > 100 µM | – | > 100 µM | – | – | – | > 100 µM | – | – | – | > 100 |
| CCN1C2=C(SC(=S)C1=C1SC(C(=O)c3ccccc3)=C(C(=O)c3ccccc3)S1)SC(=Nc1ccccc1)C2=O | 5.2 µM | 42.7 µM | 9.09 | > 45.3 µM | 51 µM | > 100 | 19.6 | > 100 µM | 5.43 µM | > 20.8 µM | 7.44 µM | > 100 |
| CC(C)c1ccc2c(c1)CCC1C(C)(CN)CCCC21C (configuration not stated) | – | 3.43 µM | – | 2.98 µM | – | 3.34 | – | 3.3 µM | – | 3.36 µM | – | 2.82 |
| O=C(NCCCNc1cc(-c2cn(-c3ccccc3)nc2-c2cccc(O)c2)ccn1)c1ccc(F)cc1 | 1.59 µM | 6.31 µM | 1.63 | 4.63 µM | 3.18 µM | 12.3 | 1.14 | 5.11 µM | 3.09 µM | 11.4 µM | 2.32 µM | 9.92 |
| CC(=O)N[C@@H](Cc1ccc(OP(=O)(O)O)cc1)C(=O)N[C@H]1CCC(=O)N2CCC[C@@H](C(=O)NCc3cccc4ccccc34)N2C1=O | > 25 µM | > 25 µM | > 25 | > 25 µM | > 25 µM | > 25 | > 25 | > 25 µM | > 25 µM | > 25 µM | > 25 µM | > 25 |
| Clc1ccc(Nc2ncnc3ccccc23)cc1 | 72.8 µM | > 100 µM | 47.7 | > 100 µM | 47.7 µM | > 100 | 80 | > 100 µM | 15.5 µM | 55.8 µM | 30.4 µM | > 100 |
| CO[C@@H]1[C@H](N(C)C(=O)c2ccccc2)C[C@@H]2O[C@]1(C)n1c3ccccc3c3c4c(c5c6ccccc6n2c5c31)C(=O)NC4=O | 1.21 µM | > 100 µM | – | – | 0.391 µM | > 100 | 0.811 | > 100 µM | – | – | 1.84 µM | > 100 |
| NNC(=S)N/N=C/c1ccccn1 | 4.29 µM | > 100 µM | 2.5 | > 100 µM | 2.62 µM | > 100 | 2.44 | > 100 µM | 0.258 µM | 0.859 µM | 2.99 µM | > 100 |
| Fc1ccc(-c2nn3c(COc4ccccc4Cl)nnc3s2)cc1Oc1ccccc1 | 41.1 µM | > 100 µM | > 100 | > 100 µM | 43.1 µM | > 100 | 34.5 | > 100 µM | 29.6 µM | > 100 µM | 52.5 µM | > 100 |
| CN(CCNc1ccc(C(=N)N)cc1)c1ccc(C(=N)N)cc1 | 13.8 µM | 38.4 µM | – | – | 38.3 µM | > 100 | 23.9 | > 100 µM | 27.5 µM | > 100 µM | 30.5 µM | > 100 |

| Compound | GI50 (BT-549 breast) | TGI (BT-549 breast) | GI50 (RXF 393 renal) [µM] | TGI (RXF 393 renal) | GI50 (KM12 colon) | TGI (KM12 colon) [µM] | GI50 (T-47D breast) [µM] | TGI (T-47D breast) | GI50 (NCI-H522 lung) | TGI (NCI-H522 lung) | GI50 (MCF7 breast) | TGI (MCF7 breast) [µM] |
| --- | --- | --- | --- | --- | --- | --- | --- | --- | --- | --- | --- | --- |
| O=C(/C=C/c1cccnc1)c1ccccc1 | 16 µM | 29.9 µM | 10.9 | 23.2 µM | 2.33 µM | 6.87 | 12.4 | 28.6 µM | 1.67 µM | 4.65 µM | 2.92 µM | 12.4 |
| CC[n+]1c(/C=C/c2ccc(N3CCCC3)cc2)cccc1/C=C/c1ccc(N2CCCC2)cc1 | 0.103 µM | 1.76 µM | 0.207 | 1.51 µM | 0.116 µM | 0.238 | 0.0332 | 0.931 µM | 0.239 µM | 2.08 µM | 0.213 µM | 1.35 |
| O=C(CSc1nc2ccc([N+](=O)[O-])cc2[nH]1)Nc1ccc([N+](=O)[O-])cc1 | 2.34 µM | 14.3 µM | 1.95 | 7.24 µM | 2.65 µM | 12.9 | 1.59 | 12.9 µM | 1.69 µM | 9.01 µM | 1.95 µM | 8.83 |
| O=P1(O)c2ccccc2CSCc2ccccc21 | – | > 100 µM | – | > 100 µM | – | > 100 | – | > 100 µM | – | > 100 µM | – | > 100 |
| CCOC(=O)c1c2c(n(Cc3ccccc3)c1C)-c1nc[nH]c1C(=O)C2=O | 17 µM | 31.1 µM | 11.2 | 23.2 µM | 13.9 µM | 27.7 | 11.4 | 30.7 µM | 15 µM | 28.8 µM | – | – |
| COc1ccc(C(=O)O[C@@H]2CCN3CC[C@H](C)[C@H]23)cc1 | – | > 100 µM | – | > 100 µM | – | > 100 | – | > 100 µM | – | > 100 µM | – | > 100 |
| Cc1cn2c(/C=N/NC3=NCCN3)c(-c3ccc(Cl)c([N+](=O)[O-])c3)nc2s1 | 0.892 µM | 1.77 µM | – | – | 0.872 µM | 1.9 | 1.75 | > 50 µM | – | – | 3.8 µM | > 50 |
| N#CC1(C#N)C2C=CC(C3CC=CC32)C1(C#N)C#N (configuration not stated) | – | – | – | 8.29 µM and 13.4 µM | – | – | 2.78 | 8.65 µM and 13.2 µM | – | 3.18 µM | – | – |
| COc1c(O)cc2c(c1CC=C(C)C)OC(=O)c1c(cc(O)c(CC=C(C)C)c1O)O2 | – | – | 4.02 | 7.75 µM | 4.12 µM | 7.71 | 4.48 | 8.72 µM | 4.16 µM | 8.06 µM | 6.48 µM | 25 |
| O=C([CH-]C(=O)c1ccccc1)c1ccccc1.O=C([CH-]C(=O)c1ccccc1)c1ccccc1.[CH2-]CCC.[CH2-]CCC.[Sn+4] | – | – | 0.128 | 0.416 µM | 0.728 µM | 2.28 | – | – | 0.0293 µM | 0.13 µM | – | – |
| COC(=O)Nc1nc2ccc(C(=O)C3CC3)cc2[nH]1 | 1.01 µM | > 30.7 µM | 0.345 | – | 0.283 µM | 1.68 | – | – | 0.426 µM | 16.4 µM | 0.331 µM | > 56.1 |
| CC(=O)NS(=O)(=O)c1ccc(-n2nc(-c3ccccc3)cc2-c2cc(O)ccc2O)cc1 | > 100 µM | > 100 µM | – | – | > 100 µM | > 100 | > 100 | > 100 µM | 45 µM | > 100 µM | > 100 µM | > 100 |
| OC1CCC(COC(c2ccccc2)(c2ccccc2)c2ccccc2)O1 (configuration not stated) | – | 40.6 µM | – | – | – | 34.3 | – | 38.2 µM | – | 31.8 µM | – | 33.3 |
| ClCCN(CCCl)c1ccc(OCc2ccccc2)cc1 | 2.5 µM | 22.6 µM | – | – | 14.2 µM | 36.7 | 4.4 | 28.7 µM | 4.64 µM | 21.9 µM | 3.6 µM | 35.5 |
| Nc1nc(N)c2cc(Sc3ccc(Cl)cc3)ccc2n1 | – | – | 1.03 | 7.78 µM | 1.34 µM | 4.32 | 1.61 | 3.33 µM | 1.35 µM | 3.87 µM | 1.16 µM | 2.79 |
| COC(=O)CC12CC(NC(=O)c3csc([C@@H](C[C@H](C(C)C)N(C)C(=O)[C@@H](NC(=O)[C@H]4CCCCN4C)C(C)C)OC(C)=O)n3)(C1)C2 | 0.00575 µM and 0.022 µM | 0.246 µM and 0.253 µM | – | – | 0.00441 µM and 0.00939 µM | > 33.3 | – | – | 0.00107 µM and 0.00333 µM | 0.00593 µM and 0.0149 µM | 0.00289 µM and 0.00405 µM | > 33.3 |
